Where two headings read alike, the source gives them in different places. Blank lines part the entries; values can stand above or below the compound they belong to.
Legend:
Assay in all cases: 3H-2-deoxyglucose uptake inhibition in L929 cells
Format in all cases: cell-based
GLUT1 [1] = molecular target: T1, GLUT1 (Mus musculus, UniProt P17809)
T1 sequence (P17809 1-492): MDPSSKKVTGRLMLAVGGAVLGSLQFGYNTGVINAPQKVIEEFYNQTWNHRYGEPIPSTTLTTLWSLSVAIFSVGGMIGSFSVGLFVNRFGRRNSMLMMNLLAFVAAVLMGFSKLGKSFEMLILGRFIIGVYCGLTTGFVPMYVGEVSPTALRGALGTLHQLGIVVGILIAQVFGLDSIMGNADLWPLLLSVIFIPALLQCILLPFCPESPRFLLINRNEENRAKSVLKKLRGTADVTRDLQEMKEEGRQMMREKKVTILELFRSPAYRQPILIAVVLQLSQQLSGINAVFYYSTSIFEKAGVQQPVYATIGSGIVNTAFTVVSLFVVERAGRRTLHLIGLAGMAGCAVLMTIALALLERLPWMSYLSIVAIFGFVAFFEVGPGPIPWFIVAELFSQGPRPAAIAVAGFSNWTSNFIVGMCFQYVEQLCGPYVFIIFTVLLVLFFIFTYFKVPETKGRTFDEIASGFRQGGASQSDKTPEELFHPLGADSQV

GLUT1 [2] = molecular target: T1, GLUT1; remark: listed apart in the source
GLUT1 [3] = molecular target: T1, GLUT1; remark: listed apart in the source

Structure (SMILES): Cc1c(NC(=O)c2cc(C(N)=O)nc3cc(F)ccc23)c(C(F)(F)F)nn1Cc1ccc(C#N)cc1 [BAY-876]
IC50 (GLUT1 [1]): 0.02 µM

IC50 (GLUT1 [2]): 8.5 µM
Structure (SMILES): O=C(Oc1cccc(F)c1OC(=O)c1cccc(O)c1)c1cccc(O)c1 [WZB-117]

Structure (SMILES): O=c1c(O)c(-c2ccc(O)c(O)c2)oc2cc(O)cc(O)c12 [quercetin, 3,3′,4′5,7-pentahydroxyflavone]
IC50 (GLUT1 [3]): 8.5 µM
